Assay results taken from ChEMBL document CHEMBL5543125, “Discovery of 2,3-Dihydro[1,4]dioxino[2,3-g]benzofuran Derivatives as Protease Activated Receptor 4 (PAR4) Antagonists with Potent Antiplatelet Aggregation Activity and Low Bleeding Tendency” (J Med Chem, 2024).
Active and inactive are the calls of the source. The calls are words filed in the database; no cut-off is given here.

Tests used:
[1] = Toxicity in C57BL/6J mouse assessed as prolongation of bleeding time at 3 to 12 mg/kg, po administered via oral gavage and measured after 2 hrs; format: organism-based; conditions: in vivo, dose 3-12 mg/kg
[2] = tested on: Platelet; assay: Inhibition of platelet aggregation in human platelet rich plasma at 20 uM preincubated for 5 mins followed by aggregation inducer addition and measured after 5 mins by light transmission aggregometry relative to control; format: functional; conditions: 10 min
[3] = Metabolic stability in human liver microsomes assessed as half life at 1 uM preincubated for 1 hr followed by NADPH addition and measured upto 60 mins by LC-MS/MS analysis; format: ADME, Microsome; conditions: time < 120 min
[4] = tested on: Platelet; assay: Antagonist activity at P2Y1/P2Y12 in ICR mouse plasma assessed as inhibition of ADP induced platelet aggregation upto 8 uM preincubated for 5 mins followed by aggregation inducer addition and measured after 5 mins by light transmission aggregometry; format: cell-free; conditions: time 10.0 min
[5] = Oral bioavailability in ICR mouse at 12 mg/kg measured upto 24 hrs by LC-MS/MS analysis; format: ADME, organism-based; conditions: in vivo
[6] = Cmax in ICR mouse at 12 mg/kg, po measured upto 24 hrs by LC-MS/MS analysis; format: ADME, organism-based; conditions: in vivo
[7] = Terminal elimination half life in ICR mouse at 12 mg/kg, po measured upto 24 hrs by LC-MS/MS analysis; format: ADME, organism-based; conditions: in vivo, read-out: beta t1/2 (converted)
[8] = tested on: Platelet; assay: Inhibition of platelet aggregation in human platelet rich plasma preincubated for 5 mins followed by aggregation inducer addition and measured after 5 mins by light transmission aggregometry; format: functional, cell-based
[9] = tested on: Plasma; assay: Ex vivo antiplatelet aggregation activity in po dosed ICR mouse […] assessed as inhibition of ADP induced platelet aggregation measured after 2 hrs by light transmission aggregometry; format: functional, organism-based; conditions: dose 1-12 mg/kg
[10] = tested on: Plasma; assay: Ex vivo antiplatelet aggregation activity in ICR mouse […] assessed as inhibition of ADP induced platelet aggregation at 6 to 12 mg/kg, po measured after 2 hrs by light transmission aggregometry relative to control; format: functional; conditions: dose 6-12 mg/kg
[11] = tested on: Plasma; assay: Anticoagulation activity in ICR mouse platelet poor plasma assessed as elongation of aPTT upto 20 uM incubated for 3 mins; format: functional, cell-free
[12] = tested on: Platelet; assay: Antiplatelet aggregation activity in ICR mouse plasma assessed as inhibition of thrombin induced platelet aggregation upto 8 uM preincubated for 5 mins followed by aggregation inducer addition and measured after 5 mins by light transmission aggregometry; format: functional, cell-based; conditions: time 10.0 min
[13] = target: Voltage-gated inwardly rectifying potassium channel KCNH2 (Homo sapiens, UniProt Q12809); assay: Inhibition of hERG expressed in HEK293 cells by whole cell patch clamp assay; format: toxicity, cell-based
Sequence of Voltage-gated inwardly rectifying potassium channel KCNH2 (Q12809 whole entry): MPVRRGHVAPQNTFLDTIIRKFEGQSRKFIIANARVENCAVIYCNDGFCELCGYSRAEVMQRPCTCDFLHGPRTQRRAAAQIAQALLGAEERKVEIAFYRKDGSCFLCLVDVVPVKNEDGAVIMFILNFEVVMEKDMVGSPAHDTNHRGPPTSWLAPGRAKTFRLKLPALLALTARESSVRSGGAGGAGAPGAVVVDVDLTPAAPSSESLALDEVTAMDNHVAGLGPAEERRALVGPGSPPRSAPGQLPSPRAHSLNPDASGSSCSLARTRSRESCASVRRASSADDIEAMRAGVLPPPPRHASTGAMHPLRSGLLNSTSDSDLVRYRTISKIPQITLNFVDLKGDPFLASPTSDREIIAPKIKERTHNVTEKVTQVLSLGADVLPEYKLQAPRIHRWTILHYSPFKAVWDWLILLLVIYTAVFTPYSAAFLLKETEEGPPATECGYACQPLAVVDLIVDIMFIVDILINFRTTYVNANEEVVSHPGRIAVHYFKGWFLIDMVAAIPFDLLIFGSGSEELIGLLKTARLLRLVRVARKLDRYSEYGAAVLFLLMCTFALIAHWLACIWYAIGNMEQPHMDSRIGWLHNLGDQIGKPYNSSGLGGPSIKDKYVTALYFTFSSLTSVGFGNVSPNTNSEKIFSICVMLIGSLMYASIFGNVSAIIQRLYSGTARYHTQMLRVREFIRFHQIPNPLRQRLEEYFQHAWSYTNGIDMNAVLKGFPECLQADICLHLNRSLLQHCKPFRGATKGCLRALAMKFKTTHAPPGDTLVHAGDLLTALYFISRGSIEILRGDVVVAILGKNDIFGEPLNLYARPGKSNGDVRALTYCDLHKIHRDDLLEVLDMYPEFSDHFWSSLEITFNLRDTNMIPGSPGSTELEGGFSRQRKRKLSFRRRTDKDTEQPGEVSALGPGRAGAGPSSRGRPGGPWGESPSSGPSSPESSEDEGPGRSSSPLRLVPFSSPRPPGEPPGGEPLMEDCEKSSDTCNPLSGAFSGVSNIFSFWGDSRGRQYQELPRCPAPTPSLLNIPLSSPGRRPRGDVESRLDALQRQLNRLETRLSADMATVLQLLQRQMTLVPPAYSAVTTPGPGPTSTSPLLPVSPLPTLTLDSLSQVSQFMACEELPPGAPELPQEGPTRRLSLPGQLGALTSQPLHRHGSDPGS

[14] = target: T1, Thromboxane A2 receptor (Mus musculus) (UniProt P30987); assay: Antagonist activity at thromboxane A2 receptor in ICR mouse plasma assessed as inhibition of U46619 induced platelet aggregation upto 8 uM preincubated for 5 mins followed by aggregation inducer addition and measured after 5 mins by light transmission aggregometry; format: functional, cell-free; conditions: time 10.0 min
T1 sequence (whole entry): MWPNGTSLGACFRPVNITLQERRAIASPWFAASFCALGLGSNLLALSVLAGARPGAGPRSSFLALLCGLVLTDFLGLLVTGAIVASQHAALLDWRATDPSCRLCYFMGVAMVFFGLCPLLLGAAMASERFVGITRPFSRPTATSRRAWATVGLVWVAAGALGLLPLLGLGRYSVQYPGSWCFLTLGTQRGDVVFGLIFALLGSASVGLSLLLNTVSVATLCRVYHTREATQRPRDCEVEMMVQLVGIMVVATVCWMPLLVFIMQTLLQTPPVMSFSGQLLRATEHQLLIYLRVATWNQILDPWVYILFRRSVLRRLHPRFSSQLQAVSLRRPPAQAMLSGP

[15] = target: T1, Thromboxane A2 receptor (Mus musculus); assay: Antagonist activity at thromboxane A2 receptor in ICR mouse plasma assessed as inhibition of U46619 induced platelet aggregation upto 1 uM preincubated for 5 mins followed by aggregation inducer addition and measured after 5 mins by light transmission aggregometry; format: functional, cell-free; conditions: time 10.0 min
[16] = target: T2, Proteinase-activated receptor 4 (Mus musculus) (UniProt O88634); assay: Antagonist activity at PAR4 in ICR mouse plasma assessed as inhibition of PAR4-activated peptide AYPGPK-NH2 induced platelet aggregation at 100 to 1000 nM preincubated for 5 mins followed by aggregation inducer addition and measured after 5 mins by light transmission aggregometry; format: cell-free; conditions: filed as antagonist, dose 100-1000 nM, time 10.0 min
T2 sequence (whole entry): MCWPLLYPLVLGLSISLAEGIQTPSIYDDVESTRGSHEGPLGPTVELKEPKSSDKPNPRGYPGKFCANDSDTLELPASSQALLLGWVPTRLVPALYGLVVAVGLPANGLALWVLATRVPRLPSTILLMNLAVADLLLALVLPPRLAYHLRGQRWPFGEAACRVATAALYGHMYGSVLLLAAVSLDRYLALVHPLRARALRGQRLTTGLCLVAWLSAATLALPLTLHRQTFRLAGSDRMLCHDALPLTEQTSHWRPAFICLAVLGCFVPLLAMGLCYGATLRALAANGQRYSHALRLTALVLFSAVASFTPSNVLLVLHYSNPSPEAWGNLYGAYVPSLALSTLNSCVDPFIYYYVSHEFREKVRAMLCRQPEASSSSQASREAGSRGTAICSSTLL

[17] = tested on: Plasma; assay: Ex vivo antiplatelet aggregation activity in po dosed ICR mouse […] assessed as inhibition of PAR4-activated peptide AYPGFK-NH2 induced platelet aggregation measured after 2 hrs by light transmission aggregometry; format: functional, organism-based; conditions: dose 1-12 mg/kg
[18] = target: T3, Platelet glycoprotein VI (Mus musculus) (UniProt P0C191); assay: Antagonist activity at GPVI in ICR mouse plasma assessed as inhibition of collagen induced platelet aggregation upto 1 uM preincubated for 5 mins followed by aggregation inducer addition and measured after 5 mins by light transmission aggregometry; format: cell-free; conditions: time 10.0 min
T3 sequence (whole entry): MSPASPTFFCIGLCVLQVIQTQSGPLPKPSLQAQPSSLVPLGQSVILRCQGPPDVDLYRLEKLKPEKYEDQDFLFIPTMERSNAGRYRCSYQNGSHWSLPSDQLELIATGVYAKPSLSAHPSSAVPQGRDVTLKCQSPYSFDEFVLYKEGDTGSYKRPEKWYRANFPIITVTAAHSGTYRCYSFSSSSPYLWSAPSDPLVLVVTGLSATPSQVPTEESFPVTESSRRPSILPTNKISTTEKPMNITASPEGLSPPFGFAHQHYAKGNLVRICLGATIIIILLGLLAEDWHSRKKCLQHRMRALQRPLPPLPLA

[19] = tested on: Platelet; assay: Antagonist activity at P2Y1/P2Y12 in ICR mouse plasma assessed as inhibition of ADP induced platelet aggregation upto 1 uM preincubated for 5 mins followed by aggregation inducer addition and measured after 5 mins by light transmission aggregometry; format: cell-free; conditions: time 10.0 min
[20] = target: T3, Platelet glycoprotein VI (Mus musculus); assay: Antagonist activity at GPVI in ICR mouse plasma assessed as inhibition of collagen induced platelet aggregation upto 8 uM preincubated for 5 mins followed by aggregation inducer addition and measured after 5 mins by light transmission aggregometry; format: cell-free; conditions: time 10.0 min
[21] = tested on: Platelet; assay: Antiplatelet aggregation activity in ICR mouse plasma assessed as inhibition of thrombin induced platelet aggregation upto 1 uM preincubated for 5 mins followed by aggregation inducer addition and measured after 5 mins by light transmission aggregometry; format: functional, cell-based; conditions: time 10.0 min
[22] = AUC (0 to t) in ICR mouse at 2 mg/kg, iv measured upto 24 hrs by LC-MS/MS analysis; format: ADME, organism-based; conditions: in vivo
[23] = tested on: Plasma; assay: Anticoagulation activity in ICR mouse platelet poor plasma assessed as elongation of prothrombin time upto 20 uM incubated for 3 mins; format: functional, cell-free
[24] = Terminal elimination half life in ICR mouse at 2 mg/kg, iv measured upto 24 hrs by LC-MS/MS analysis; format: ADME, organism-based; conditions: in vivo, read-out: beta t1/2 (converted)
[25] = tested on: Plasma; assay: Ex vivo antiplatelet aggregation activity in ICR mouse […] assessed as inhibition of PAR4-activated peptide AYPGFK-NH2 induced platelet aggregation at 6 to 12 mg/kg, po measured after 2 hrs by light transmission aggregometry relative to control; format: functional; conditions: dose 6-12 mg/kg
[26] = AUC (0 to t) in ICR mouse at 12 mg/kg, po measured upto 24 hrs by LC-MS/MS analysis; format: ADME, organism-based; conditions: in vivo
[27] = Tmax in ICR mouse at 12 mg/kg, po measured upto 24 hrs by LC-MS/MS analysis; format: ADME, organism-based; conditions: in vivo
[28] = Clearance in ICR mouse at 2 mg/kg, iv measured upto 24 hrs by LC-MS/MS analysis; format: ADME, organism-based; conditions: in vivo
[29] = tested on: Plasma; assay: Ex vivo antiplatelet aggregation activity in ICR mouse […] assessed as inhibition of PAR4-activated peptide AYPGFK-NH2 induced platelet aggregation at 6 mg/kg, po measured after 2 hrs by light transmission aggregometry; format: functional, organism-based
[30] = tested on: Plasma; assay: Ex vivo antiplatelet aggregation activity in ICR mouse […] assessed as inhibition of ADP induced platelet aggregation at 6 mg/kg, po measured after 2 hrs by light transmission aggregometry; format: functional, organism-based
[31] = target: T2, Proteinase-activated receptor 4 (Mus musculus); assay: Antagonist activity at PAR4 in ICR mouse plasma assessed as inhibition of PAR4-activated peptide AYPGPK-NH2 induced platelet aggregation at 200 to 1000 nM preincubated for 5 mins followed by aggregation inducer addition and measured after 5 mins by light transmission aggregometry; format: cell-free; conditions: filed as antagonist, dose 200-1000 nM, time 10.0 min
[32] = target: T4, Platelet glycoprotein VI (Homo sapiens) (UniProt Q9HCN6); assay: Antagonist activity at GPVI in human platelet rich plasma assessed as inhibition of collagen induced platelet aggregation at >=4 uM preincubated for 5 mins followed by aggregation inducer addition and measured after 5 mins by light transmission aggregometry; format: cell-free; conditions: filed as antagonist, time 10.0 min
T4 sequence (whole entry): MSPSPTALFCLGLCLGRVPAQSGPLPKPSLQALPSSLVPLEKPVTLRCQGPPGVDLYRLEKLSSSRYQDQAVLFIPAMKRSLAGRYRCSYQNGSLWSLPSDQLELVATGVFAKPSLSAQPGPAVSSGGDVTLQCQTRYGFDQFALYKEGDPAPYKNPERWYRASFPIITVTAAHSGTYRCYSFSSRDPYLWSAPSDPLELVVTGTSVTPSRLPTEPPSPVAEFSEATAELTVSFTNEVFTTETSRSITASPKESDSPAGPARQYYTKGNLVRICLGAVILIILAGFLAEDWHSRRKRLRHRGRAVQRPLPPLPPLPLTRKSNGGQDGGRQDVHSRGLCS

Row | Structure (SMILES) | Activity [1] | inhibition at 20 µM [2] [%] | half-life at 1 µM [3] [h] | bioavailability [5] [%] | Cmax [6] [µg/mL] | half-life [7] [h] | IC50 [8] [µM] | Activity [9] | inhibition (INH) [10] [%] | Activity [11] | IC50 [13] [µM] | Activity [15] | Activity [17] | Activity [18] | Activity [19] | Activity [21] | AUC(0-t) at 24 h [22] [µg·h/mL] | Activity [23] | half-life [24] [h] | inhibition (INH) [25] [%] | further results
1 | COc1nn2cc(-c3cc4ccc5c(c4o3)OCC(COc3ccc(F)cc3)O5)nc2s1 (stereo not given) | Non-Toxic | 87.2 | 0.708 | 9.61 | 0.204 | 29.5 | 0.0142 | Dose-Dependent Effect | >90 | inactive | > 30 | inactive | Dose-Dependent Effect | inactive | inactive | inactive | 5.39 | inactive | 38.3 | >90 | Activity [4]: inactive; Activity [12]: inactive; Activity [14]: inactive; Activity [16]: Active; Activity [20]: inactive; AUC(0-t) at 24 h [26]: 3.04 µg·h/mL; Tmax [27]: 2 h; clearance [28]: 0.18 L/h/kg
2 | COc1nn2cc(-c3cc4ccccc4o3)nc2s1 | – | – | – | – | – | – | – | – | – | – | – | – | – | – | – | – | – | – | – | – | Activity [29]: inactive; Activity [30]: inactive
3 | COc1nn2cc(-c3cc4ccc5c(c4o3)OC(COc3ccc(F)cc3)CO5)nc2s1 (stereo not given) | Non-Toxic | 85.9 | 1.63 | 45.1 | 0.325 | 7.32 | 0.0261 | Dose-Dependent Effect | >90 | inactive | 21.6 | inactive | Dose-Dependent Effect | inactive | inactive | inactive | 1.25 | inactive | 11.3 | >90 | Activity [31]: Active; Activity [32]: Active; AUC(0-t) at 24 h [26]: 3.46 µg·h/mL; Tmax [27]: 1.67 h; clearance [28]: 1.43 L/h/kg
